PubChem BioAssay AID2060624 (Molecular Pharmacology Branch, DTP, NCI, 2025)
Values joined by “and” are separate entries in the source; they are usually repeats but may differ in a detail not shown here. Equal entries are not always repeated.

Tested on: 217524-143-R1-J4-PDC spheroids with HUVEC/MSC, viability
Assay: Anticancer human tumor 217524-143-R1-J4-PDC patient-derived pancreatic carcinoma cell line growth inhibition [CLK]
Conditions: for viability, T/C: stronger effect = lower value
From the text: A high-throughput screen of multi-cell type tumor spheroids was designed to identify active combinations of […] and targeted small molecules. Complex spheroids include a stromal component modeled by human endothelial cells (HUVEC) and fibroblasts modeled by human mesenchymal stem cells (MSCs). The concentration ranges selected for each drug and investigational agent were based upon clinically achievable concentrations if the clinical Cmax of the agent was known.
Compounds. The drugs and investigational agents: cirtuvivint (SM08502; NSC835563), CC-671 (NSC850746), vemurafenib (NSC761431), tapotoclax (NSC804041), sotorasib (NSC818433), adagrasib (NSC831453), MRTX-1133 (NSC836407), BAY2416964 (NSC825713), copanlisib (NSC816437), inavolisib (NSC800729), abemaciclib (NSC768073), osimertinib (NSC779217), entinostat (NSC756642), eltanexor (KPT-8602, NSC794443), venetoclax (NSC766270), ceralasertib (NSC777638), bortezomib (NSC756655), olaparib (NSC753686), talazoparib (NSC767125), alisertib (NSC759677), peposertib (NSC802822), gemcitabine (NSC613327), 5-fluorouracil (NSC19893), SN-38 (NSC673596), oxaliplatin (NSC266046), paclitaxel (NSC125973), and doxorubicin (NSC123127), were obtained from the National Cancer Institute (NCI) Developmental Therapeutics Program Chemical Repository. The FDA-approved anticancer drug set is available from the Developmental Therapeutics Program at https://dtp.cancer.gov/organization/dscb/obtaining/available plates.htm. […] The stock solutions were prepared in dimethyl sulfoxide (DMSO, Sigma-Aldrich, St. Louis, MO, cat. D2650), except for the platinum complexes which were prepared in saline (Quality Biological, Gaithersburg, MD, cat. 114-055-101), at 800-fold the tested concentration and stored at -70 degrees C prior to their use. All drugs and investigational agents were tested over a range starting from a high concentration at or near the clinical Cmax and decreasing in half-log increments. If the clinical Cmax for an agent had not been determined, the highest concentration tested was 10 microM.
Cell Culture. All cells were maintained in an incubator at 37 degrees C and 5% CO2 with 95% humidity. The PDC lines were cultured according to standard operating procedures established by the NCI PDMR. Briefly, all PDCs were thawed and cultured in Matrigel-coated flasks prepared with a working solution of 1X Ham's F-12 nutrient mix, without supplementation (Invitrogen, Waltham, MA, cat. 11765054), 100 U/mL penicillin-streptomycin (Invitrogen, cat. 15140122), and 2.5% Matrigel (Corning Inc., Corning, NY, cat. 354248) for the first three passages. The 947758-054-R-J2-PDC line was cultured in 6B/Colon 1A media, which includes advanced DMEM/F-12 (Thermo Fisher Scientific, cat. 12634028), 10 mM HEPES (Thermo Fisher Scientific, cat. 15630080), 1X GlutaMAX supplement (Thermo Fisher Scientific, cat. 35050061), 0.1 mg/mL primocin (InvivoGen, cat. ant-pm-2), 10% defined fetal bovine serum, heat inactivated (HyClone Laboratories Inc., cat. SH30070.03HI), 1.25 mM N-Acetyl-L-cysteine (Sigma-Aldrich, cat. A9165), 10 mM nicotinamide (Sigma-Aldrich, cat. N0636), 1X B-27 supplement (Thermo Fisher Scientific, cat. 17504044), 1X N-2 supplement (Thermo Fisher Scientific, cat. 17502048), and 10 microM Y-27632 dihydrochloride (Tocris Bioscience, cat. 1254). The 876862-298-R-J1-PDC was cultured in 6E media, which includes all 6B/Colon 1A media components plus 50% L-WRN conditioned media (ATCC, cat. CRL-3276), 50 ng/mL recombinant human EGF recombinant protein (hEGF; Thermo Fisher Scientific, cat. PHG0311), 10 ng/mL recombinant human fibroblast growth factor 10 (hGFG-10; PeproTech, cat. 100-26), 1 ng/mL recombinant human fibroblast growth factor 2 (hFGF-2; PeproTech, cat. 100-18B), and 1 µM prostaglandin E2 (PGE2; Tocris, cat. 2296). The 227483-062-R1-J1-PDC line was cultured in Panc media, containing all 6E components except hFGF-2, with the addition of 500 nM SB-431542 (Selleckchem, cat. S1067) and 10 nM gastrin (Tocris, cat. 3006). […]
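Further: spheroids exposed to agents for seven days before reading.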
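Wherever viability, T/C is given: 100% = DMSO vehicle control viability.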

Compound: CN1CCN(c2cc(C(=O)Nc3cc4cc(-c5cnn(C)c5)ccc4cn3)ccn2)CC1
- viability, T/C (compound 0.1 µM): 54.9% [middle of 12 runs]
- viability, T/C (compound 0.316 µM): 21.7% [middle of 12 runs]
- viability, T/C (compound 1 µM): 1.79% [middle of 12 runs]
- viability, T/C (compound 3.16 µM): 0.9% [middle of 12 runs]
- viability, T/C (compound 10 µM): 0.22% [middle of 9 runs]
- IC50 (compound alone, run of 07/31/2023): 119 nM [middle of 12 runs]

Compound: COc1ccc([C@@H](O)c2cc(-c3ncnc4cc(N5CCOCC5)ccc34)c(F)cc2Cl)nn1
- viability, T/C (compound 0.0316 µM): 100% and 86.5%
- viability, T/C (compound 0.1 µM): 68.5% and 86.3%
- viability, T/C (compound 0.316 µM): 58.5% and 56.8%
- viability, T/C (compound 1 µM): 52.6% and 42.2%
- viability, T/C (compound 3.16 µM): 34.3% and 27.2%
- viability, T/C (compound 10 µM): 10.5% and 11.7%
- IC50 (curve of compound): 0.756 µM and 0.632 µM

Compound: COc1cccc2c1C(=O)c1c(O)c3c(c(O)c1C2=O)CC(O)(C(=O)CO)CC3OC1CC(N)C(O)C(C)O1 (configuration not stated)
- viability, T/C (compound 0.0316 µM): 36.9% and 42.6%
- viability, T/C (compound 0.1 µM): 24.5% and 29.6%
- viability, T/C (compound 0.316 µM): 26.5% and 27.4%
- viability, T/C (compound 1 µM): 16.9% and 18.4%
- viability, T/C (compound 3.16 µM): 3.52% and 3.31%
- viability, T/C (compound 10 µM): 1.28% and 0.73%
- IC50 (curve of compound): < 0.0316 µM

Compound: C=CC(=O)N1CCN(c2nc(=O)n(-c3c(C)ccnc3C(C)C)c3nc(-c4c(O)cccc4F)c(F)cc23)C(C)C1 (configuration not stated) + CN1CCN(c2cc(C(=O)Nc3cc4cc(-c5cnn(C)c5)ccc4cn3)ccn2)CC1
- IC50 (curve of first compound, second compound 0.0316 µM): > 10 µM
- IC50 (curve of first compound, second compound 0.1 µM): > 10 µM
- IC50 (curve of first compound, second compound 0.316 µM): < 0.0316 µM
- IC50 (curve of first compound, second compound 1 µM): < 0.0316 µM
- IC50 (curve of first compound, second compound 3.16 µM): < 0.0316 µM
- IC50 (curve of first compound, second compound 10 µM): < 0.0316 µM
- viability, T/C (second compound 0.0316 µM, first compound 0.0316 µM): 93.4%
- viability, T/C (second compound 0.0316 µM, first compound 0.1 µM): 71.5%
- viability, T/C (second compound 0.0316 µM, first compound 0.316 µM): 67.1%
- viability, T/C (second compound 0.0316 µM, first compound 1 µM): 90.5%
- viability, T/C (second compound 0.0316 µM, first compound 3.16 µM): 111%
- viability, T/C (second compound 0.0316 µM, first compound 10 µM): 95.4%
- viability, T/C (second compound 0.1 µM, first compound 0.0316 µM): 62.3%
- viability, T/C (second compound 0.1 µM, first compound 0.1 µM): 59%
- viability, T/C (second compound 0.1 µM, first compound 0.316 µM): 58.7%
- viability, T/C (second compound 0.1 µM, first compound 1 µM): 64.9%
- viability, T/C (second compound 0.1 µM, first compound 3.16 µM): 66.7%
- viability, T/C (second compound 0.1 µM, first compound 10 µM): 57%
- viability, T/C (second compound 0.316 µM, first compound 0.0316 µM): 25.8%
- viability, T/C (second compound 0.316 µM, first compound 0.1 µM): 22.5%
- viability, T/C (second compound 0.316 µM, first compound 0.316 µM): 27%
- viability, T/C (second compound 0.316 µM, first compound 1 µM): 30.8%
- viability, T/C (second compound 0.316 µM, first compound 3.16 µM): 31.1%
- viability, T/C (second compound 0.316 µM, first compound 10 µM): 22.9%
- viability, T/C (second compound 1 µM, first compound 0.0316 µM): 1.96%
- viability, T/C (second compound 1 µM, first compound 0.1 µM): 2.92%
- viability, T/C (second compound 1 µM, first compound 0.316 µM): 1.65%
- viability, T/C (second compound 1 µM, first compound 1 µM): 3.19%
- viability, T/C (second compound 1 µM, first compound 3.16 µM): 2.93%
- viability, T/C (second compound 1 µM, first compound 10 µM): 2.27%
- viability, T/C (second compound 3.16 µM, first compound 0.0316 µM): 1.06%
- viability, T/C (second compound 3.16 µM, first compound 0.1 µM): 1.37%
- viability, T/C (second compound 3.16 µM, first compound 0.316 µM): 1.15%
- viability, T/C (second compound 3.16 µM, first compound 1 µM): 0.96%
- viability, T/C (second compound 3.16 µM, first compound 3.16 µM): 1.76%
- viability, T/C (second compound 3.16 µM, first compound 10 µM): 1.78%
- viability, T/C (second compound 10 µM, first compound 0.0316 µM): 0.21%
- viability, T/C (second compound 10 µM, first compound 0.1 µM): 0.25%
- viability, T/C (second compound 10 µM, first compound 0.316 µM): 0.24%
- viability, T/C (second compound 10 µM, first compound 1 µM): 0.29%
- viability, T/C (second compound 10 µM, first compound 3.16 µM): 0.41%
- viability, T/C (second compound 10 µM, first compound 10 µM): 0.29%
